Data on three molecules can be found in PMC7009786 (ACS biomaterials science & engineering, 2018).

Data set [1] deals with TOV-21G cells. The data set is described as follows: Cell viability after 72 h incubation. The class given is cell-based. The following applies: TOV-21G (Pt-sensitive), 56.6 μM, mean of N=3, Pt-NLS purity 87%.
For data set [2] the following is noted: after 150 days; cited from earlier work.
Data set [3] concerns ES-2 cells. The data set is described as follows: Cell viability after 72 h incubation. The settings on record: ES-2 (Pt-sensitive), 18.4 μM, mean of N=3, Pt-NLS purity 87%. Type of data set: cell-based.
For data set [4], the system named is ovarian cancer-derived cell lines. The class given is cell-based.

In the case of `N.N.O=C([O-])C1(C(=O)[O-])CCC1.[Pt+2]` [carboplatin, Carboplatin], the “decrease of cell viability” value turned out to be 40% in data set [1] and 20% in data set [3]. Moreover, the hydrolysed species in data set [2] is given as 3%.
For `O=C1[O][Pt]2([NH][C@@H]3CCCC[C@H]3[NH]2)[O]C1=O` [oxaliplatin], in data set [2], the hydrolysed species is recorded as 3%.
Turning to PKKKRKV [Pt-NLS hybrid], the “decrease of cell viability” value in data set [1] is ~ 50%; in data set [3], ~ 30%. Also, in data set [4], the “cytotoxicity in vitro (in words)” value is “high cytotoxicity, significantly superior to carboplatin”.
